Measurements published in PMC4613797 (Journal of medicinal chemistry, 2015).

Tests used:
Mouse CYP27B1 = target: T1, Mouse CYP27B1 (Mus musculus, UniProt O35084); assay: Kinetics of 1α-hydroxylation; type: in vitro ADME; conditions: for Km: 1α-hydroxylation by mouse CYP27B1, phospholipid vesicles, 2 min, ±SE of the curve fit
T1 sequence (O35084 1-507): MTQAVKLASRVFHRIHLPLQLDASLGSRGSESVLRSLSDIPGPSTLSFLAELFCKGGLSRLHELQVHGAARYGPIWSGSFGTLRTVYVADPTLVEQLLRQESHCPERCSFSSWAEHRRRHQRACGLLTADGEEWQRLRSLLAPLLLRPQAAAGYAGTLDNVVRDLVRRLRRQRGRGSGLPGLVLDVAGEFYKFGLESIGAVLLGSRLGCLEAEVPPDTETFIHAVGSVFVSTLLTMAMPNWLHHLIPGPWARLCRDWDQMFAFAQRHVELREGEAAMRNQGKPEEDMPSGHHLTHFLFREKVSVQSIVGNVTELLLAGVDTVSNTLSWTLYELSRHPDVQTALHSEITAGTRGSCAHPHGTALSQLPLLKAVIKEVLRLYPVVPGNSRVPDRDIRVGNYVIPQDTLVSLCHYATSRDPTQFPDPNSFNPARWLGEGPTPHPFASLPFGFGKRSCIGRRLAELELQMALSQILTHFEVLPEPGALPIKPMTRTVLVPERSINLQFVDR

vitamin D receptor (VDR) [1] = assay: Lentiviral VDRE luciferase reporter assay in HaCaT cells; type: cell-based, human
vitamin D receptor (VDR) [2] = assay: Lentiviral VDRE luciferase reporter assay in Caco-2 cells; type: cell-based
[3] = tested on: IFNγ production by mouse splenocytes; assay: IFNγ inhibition assay in mouse splenocytes; type: cell-based; conditions: 100 nM, versus control
SKMEL 188 melanoma cells = SKMEL 188 melanoma cells ref 6; cited from earlier work
[4] = mice, up to a dose of 60 µg/kg ref 18, 19; cited from earlier work
[5] = Homo sapiens, 24 h, read-out: VDRE activation (EC50, nM) HaCaT, HaCaT, VDRE-luciferase, 24 h
[6] = read-out: VDRE activation (EC50, nM) HaCaT, VDRE-luciferase, 24 h
[7] = Homo sapiens, Caco-2, 24 h, read-out: VDRE activation (EC50, nM) Caco-2, Caco-2, VDRE-luciferase, 24 h
[8] = read-out: VDRE activation (EC50, nM) Caco-2, Caco-2, VDRE-luciferase, 24 h

EC50 (vitamin D receptor (VDR) [2]; [7]) | EC50 (vitamin D receptor (VDR) [2]; [8]) | kcat, fold higher than that for the 24S isomer (Mouse CYP27B1; mouse CYP27B1, versus 20S,24S(OH)2D3) | catalytic efficiency (kcat/Km), fold higher than 20S,24S(OH)2D3 (Mouse CYP27B1; mouse CYP27B1, versus 20S,24S(OH)2D3, listed as 20S,24R(OH)2D3) | SMILES | Km (Mouse CYP27B1) | EC50 (vitamin D receptor (VDR) [1]; [5]) | EC50 (vitamin D receptor (VDR) [1]; [6]) | effect on production of IFNγ by splenocytes (in words) [3] | inhibiting colony formation, potency compared with 1,25(OH)2D3 (SKMEL 188 melanoma cells) | calcemic activity [4]
> 1000 nM | > 1000 nM |  |  | C=C1CC[C@H](O)C/C1=C/C=C1\CCC[C@@]2(C)[C@H]1CC[C@@H]2[C@@](C)(O)CC[C@H](O)C(C)C [Compound 17b, 20S,24S-dihydroxyvitamin D3] | 2.49 ± 0.59 (mmol of substrate)/(mol of phospholipid) | > 1000 nM | > 1000 nM | slightly increased production |  | 
> 1000 nM | > 1000 nM | 18 fold | 5 fold | C=C1CC[C@H](O)C/C1=C/C=C1\CCC[C@@]2(C)[C@H]1CC[C@@H]2[C@@](C)(O)CC[C@@H](O)C(C)C [Compound 17a, 20S,24R-dihydroxyvitamin D3] | 7.99 ± 4.01 (mmol of substrate)/(mol of phospholipid) | > 1000 nM | > 1000 nM |  | more potent than 1,25(OH)2D3 | 
 |  |  |  | C=C1CC[C@H](O)C/C1=C/C=C1\CCC[C@@]2(C)[C@H]1CC[C@@H]2[C@@](C)(O)CCCC(C)C [20S(OH)D3, 20S-hydroxyvitamin D3] |  |  |  |  |  | noncalcemic
